Test results as given in paper PMC10353061 (ACS Pharmacology & Translational Science, 2023).

Columns and labels:
[1] = system: β-catenin; experiment: Wnt reporter assay (TOP/FOP luciferase) in LiCl-treated HCT116 cells; assay type: cell-based; details: Homo sapiens, HCT-116, read-out: IC50, inhibition of β-catenin (luciferase reporter), LiCl 50 mM, 24 h
Protocol: Compounds 9 and 10 were assayed at increasing 10 and 100 nM and 1 μM concentrations in HCT116 cells transfected with luciferase-based vectors and treated with LiCl (50 mM). TOP TK is a well-established Wnt reporter vector containing eight sequences of Tcf/Lef binding site upstream of the timidine kinase (TK) minimal promoter, driving the expression of firefly luciferase.
Figure 6 HCT116 cells were transfected with luciferase-based vectors and treated with LiCl (50 mM) together with increasing concentrations of compound 9 or 10. Cells were harvested 24 h post-treatment and assayed for luciferase activity. Inhibitions were calculated as the luciferase/renilla ratio of the treated samples vs. the luciferase/renilla ratio of the untreated (control) samples. Data are represented as the mean ± SD of three independent experiments, each performed in triplicate. **p < 0.01, ***p < 0.001, n.s = not significant, as determined by analysis of variance (ANOVA).
Luciferase assays were performed as previously described.[58],[59] Briefly, HCT116 cells were transfected with Topflash reporter (M50 Super 8x TOPFlash, containing 8 repeats of TCF/LEF binding sites) or Fopflash reporter (M51 Super 8x FOPFlash, containing the mutated TCF/LEF binding sites) plasmids using the Dreamfect Gold Transfection Reagent (#DG80500, OZ Biosciences). […]

[2] = system: Myc; experiment: Myc and β-catenin expression (western blot, qPCR) in LiCl-treated HCT116 cells; assay type: cell-based, human; details: HCT116, LiCl 50 mM, 24 h
Protocol: To this end, HCT116 cells were treated for 24 h with 50 mM LiCl and increasing concentrations (10–50–100 μM) of the two compounds.
Figure 7 Top panels. […] Vinculin was used as a loading control. […] Bottom panels. c-Myc mRNA levels were measured by qPCR and normalized to the expression of β-actin mRNA and expressed as fold change relative to the control sample. Results represent the mean ± SD of three independent experiments, each performed in triplicate. **p < 0.01, ***p < 0.001 as determined by ANOVA.
Briefly, total proteins from the cells in each group were subjected to 12% denaturing sodium dodecyl sulfate-polyacrylamide gel electrophoresis (SDS-PAGE). The proteins were then transferred onto a poly(vinylidene fluoride) (PVDF) membrane (Millipore). […] After the membrane was fully washed, it was incubated with secondary antibodies at 37 °C for 45 min goat anti-rabbit IgG H&L (HRP) (ab97051), Abcam, MA. The membrane was washed with Tris-buffered saline/Tween-20 (TBST) 4 times at room temperature for 14 min each time. Next, the samples were exposed and imaged (Sigma-Aldrich Chemical) using the enhanced chemiluminescence (ECL) method (Pierce Biotechnology).

O=S(=O)(Nc1ccc(-c2ccccn2)cc1)c1ccc(Br)cc1 [Compound 9, 4-Bromo-N-(4-(pyridin-2-yl)phenyl)benzenesulfonamide]
IC50 [1]: > 1000 nM
inhibition of Myc expression ([2]; 10 μM): about 2.5 fold
protein and mRNA levels of Myc ([2]; 10–50–100 μM): significant dose-dependent inhibition
β-catenin protein levels ([2]; 10–50–100 μM): reduced only at the highest dose
